Consider one compound from US12482280B2, “Biological image transformation using machine-learning models” (Insitro, Inc., priority 2020, dated 2025).

The subject of the assay is tissues with NASH. In words: Evaluation of drug treatment in NASH disease model using GAN-generated phase/fluorescence images. The assay is classed as cell-based. To be noted: NASH 2X + ACC inhibitor. From the text: FIG. 16A illustrates synthetic images generated by an exemplary GAN model to study the NASH disease, in accordance with some embodiments. In the depicted example, Hepg2 cells with NASH genetic background are illuminated using an optimal illumination pattern identified using techniques described herein, and a bright-field image is captured. The bright-field image is inputted into a GAN model, which outputs a generated phase image and a generated fluorescence/bodipy image in FIG. 16A. The GAN model used in FIG. 16A can be configured to include a trained classifier as described with reference to FIGS. 14A-B and 15. The classifier has two conditions: a healthy condition (e.g., no perturbations) and a diseased condition (e.g., inflammation cocktail plus fatty acid). […]
The synthetic images generated by the GAN model can also be used to evaluate the efficacy of a treatment. […] The images can be phase images or fluorescence images generated using the techniques described herein (e.g., from bright-field images). Each phase or fluorescence image can be generated based on multiple bright-field images and thus comprises richer information such as phase shift information. Accordingly, the generated phase or fluorescence images can allow for higher precision in downstream analyses, as described below. […]

Structures are written as SMILES.

With `COc1ccccc1[C@H](Cn1c(=O)n(C(C)(C)C(=O)O)c(=O)c2c(C)c(-c3ncco3)sc21)OC1CCOCC1` [ACC inhibitor, firsocostate], where the note is “50 uM, treated tissues vs untreated diseased tissues, generated images”, the “probability of having the disease outputted by a classifier trained on generated images (distribution, FIG. 16C)” value is given as “lower probabilities of having the disease than generated images of diseased tissues”. Moreover, the “image clusters in an embedding space (UMAP, FIG. 16D)” value (generated images of treated vs diseased vs healthy tissues) is “moves away from the cluster of generated diseased images and toward the cluster of generated healthy images”.
